Experimental data published in patent US20210052600A1, “THERAPEUTIC AGENTS FOR STRESS URINARY INCONTINENCE AND INCOTINENCE OF FECES” (Takeda Pharmaceutical Company Limited, priority 2017, published 2021).
Counter-ions that a name gives are not always drawn. Like-named read-outs stand apart in the source and are kept apart here.

Key:
[1] = test system: urethral resistance; experiment: Rat urethral resistance (LPP) measured by high speed infusion of saline into the bladder; assay type: in vivo; conditions: mean ± SEM; for LPP Post: 30 minutes after administration; for LPP Increase: Post minus Pre; for LPP Pre: before administration
Description: The rats were anesthetized with isoflurane. Their spinal cord was transected at the T8-T9 (the eighth thoracic cord—the ninth thoracic cord) level. After opening of the bladder dome, two polyethylene tubes (PE-100) were inserted into the bladder. The incised portion of the bladder was closed with sutures, and the other incisions were also closed. The rats were placed in Bollman cages. The catheter for intravesical pressure measurement was connected to a pressure transducer, while the catheter for saline filling was connected to a syringe filled with Evans Blue-dyed saline. Change in intravesical pressure was recorded using the pressure transducer via an electric signal amplifier and an analog-to-digital converter. After recovery of the animals from anesthesia, the intravesical pressure measurement was started, and saline was infused at a speed of 0.1 mL/sec into the bladder using an infusion pump. The infusion was stopped when the leakage of the saline from the urethral orifice was observed. Immediately thereafter, the bladder was emptied by releasing the pressure. In this operation, the peak of recorded intravesical pressure during the saline infusion was used as LPP in this Example. This measurement was repeated, and the average LPP from the last three measurements was used as the LPP value of the trial. The mean from 2 such trials was used as a Pre value. 0.5% MC was used as the vehicle. […] The difference in LPP from the Pre value (increased amount of LPP) was calculated. Regarding change in LPP before and after drug administration, the differences between the mean values of the drug-treated and vehicle-treated groups were analyzed by the one-tailed Williams' test.

[2] = test system: urethral resistance; experiment: Urethral resistance (LPP) during intravesical pressure rise by electrical stimulation of rat abdominal muscle; assay type: in vivo; conditions: mean ± SEM; for LPP Post: 30 minutes after administration; for LPP Increase: Post minus Pre; for LPP Pre: before administration
Description: Fifty six female rats of Sprague-Dawley strain (hereinafter, referred to as “SD strain”) were used. The rats were anesthetized with urethane, and their spinal cord was transected at the T8-T9 (the eighth thoracic cord—the ninth thoracic cord) level for the elimination of reflex voiding. Isoflurane inhalation was added, if necessary. After opening of the abdomen, a catheter (PE-100) was inserted into the bladder. In order to secure reduced urethral resistance, unilateral nerve to iliococcygeus and pubococcygeus muscles was transected. For intraduodenal administration, another catheter (PE-50) was inserted into the duodenum in advance. The abdominal muscle and skin were each closed with sutures. Two (right and left) sites of abdominal skin near the diaphragm were cut to expose abdominal muscle. The bladder was emptied through the catheter, followed by the injection of 0.2 to 0.3 mL of 0.1% Evans blue solution. Change in intravesical pressure was recorded using the bladder catheter via a pressure transducer, an electric signal amplifier, and an analog-to-digital converter. While change in intravesical pressure was recorded, the presence or absence of fluid leakage from the urethral orifice was observed under the electrical stimulation of the exposed abdominal muscle using an electrical stimulator and an isolator. […] The peak of the intravesical pressure during the stimulation of the abdominal muscle was measured, and the lowest pressure at which the fluid leakage was observed among the trials was defined as leak point pressure (hereinafter, referred to as “LPP”) for the electrical abdominal muscle stimulation method and used as an index for urethral resistance. Each drug was evaluated for its effect by comparing LPP before drug administration with that after drug administration. […] The drugs were suspended in 0.5% methylcellulose solution (MC). […] LPP was measured again 30 minutes after administration. Regarding change in LPP before and after drug administration, the differences between the mean values of the drug-treated and vehicle groups were analyzed by the one-tailed Williams' test.

[3] = test system: urethra-closing reflex response; experiment: Urethra-closing reflex response induced by intravesical pressure rise in rats; assay type: in vivo, rat; conditions: 20 mg/kg i.d., mean ± SEM
Description: Thirty-two female rats of SD strain were used. The rats were anesthetized with urethane. Isoflurane inhalation was added during the surgery, if necessary. Their spinal cord was transected at the T8-T9 (the eighth thoracic cord—the ninth thoracic cord) level to eliminate the reflex voiding and to inhibit the transition from the urine storage phase to the voiding phase in the voiding cycle. After opening of the abdomen, the bladder neck was ligated with suture, and a catheter (PE-100) was inserted into the bladder. The bladder catheter was connected to a pressure transducer and a saline-containing reservoir via three-way stopcocks. A microtip transducer catheter was inserted from the urethral orifice toward the bladder so that its transducer was inserted into the urethra. Local change in pressure within the urethra (intraurethral pressure) was recorded via an electric signal amplifier and an analog-to-digital converter. […] Then, the reservoir was brought back to the original position to adjust the intravesical pressure to its baseline. Such change in intraurethral pressure induced by intravesical pressure rise was repeatedly measured, and the mean value from the last 2 trials was used as a Pre value. The vehicle used was 0.5% MC. […] Thirty minutes after administration, the change in intraurethral pressure induced by intravesical pressure rise was measured again and used as a Post value. The average value before intravesical pressure rise was subtracted from the average value during intravesical pressure rise, and the subtracted value was used as urethra-closing reflex response. The ratio of the Post value to the Pre value was calculated.

[4] = test system: urethra-closing response; experiment: MT (threshold inducing urethra-closing response) under transcranial magnetic stimulation in healthy female volunteers; assay type: in vivo, human; conditions: for MT of the urethra-closing response in response to TMS, Mean / Rate of change from baseline of MT of the urethra-closing response in response to TMS, Mean: 40 mg capsule single oral dose
Description: The test subjects were healthy female volunteers having a body weight of at least 45 kg (average: 50.91 kg, standard deviation: 3.346) and a BMI value of 18.5 kg/m^2 to 25.0 kg/m^2 (average: 19.57 kg/m^2, standard deviation: 0.929).
A washout period of at least 7 days was provided between the treatments.
A capsule containing 40 mg of duloxetine was orally administered as duloxetine together with water. A placebo capsule containing saccharose and spherical starch granules was orally administered as a placebo for duloxetine together with water.
Specifically, during the TMS, the output of a magnetic stimulator (Magstim Rapid Square, manufactured by Magstim Co., Ltd.) was increased by 5% each time using 110 mm double cone coil, and the minimum output at which urethra-closing response occurred abruptly was determined and used as MT (%). The urethra-closing response was detected by measuring contractile responses within the urethra. The contractile response within the urethra was measured using Duet Logic G2 (manufactured by Mediwatch Ltd.) and UniTip (manufactured by Unisensor AG). MT was measured again after administration of each drug, and the rate of change (%) from the baseline was calculated. The rate of change was determined by dividing MT after administration of each drug by MT before administration.

[5] = Comparison of plasma concentrations for urethra-closing effect and anti-obesity effect (analysis of Examples 1-9 and literature)
[6] = test system: urethral resistance increasing effect of Compound A′; experiment: Influence of antagonists (SB 242084, methiothepin) on urethral resistance increasing effect of Compound A′ in rats; assay type: in vivo, rat; conditions: mean ± SEM; for LPP Increase: Post minus Pre; for LPP Pre: before administration
Description: Ninety female rats of SD strain were used. […] Isoflurane inhalation was added during the surgery, if necessary. In the experiment with intrathecal administration, the dura mater was exposed by laminectomy and then partially opened by incision, through which a catheter (PE-10) filled with saline was then implanted at the level of the L6-S1 site, followed by the closing of the incision. After opening of the abdomen, a catheter (PE-90) was inserted into the bladder. In order to secure reduced urethral resistance, unilateral nerve to iliococcygeus and pubococcygeus muscles was transected. For intraduodenal administration, another catheter (PE-50) was inserted into the duodenum in advance. The abdominal muscle and skin were each closed with sutures. Two (right and left) sites of abdominal skin near the diaphragm were cut to expose abdominal muscle. The bladder was emptied through the catheter, followed by the injection of 0.2 to 0.3 mL of Evans blue solution. Change in intravesical pressure was recorded using the bladder catheter via a pressure transducer, an electric signal amplifier, and an analog-to-digital converter. While change in intravesical pressure was recorded, the presence or absence of fluid leakage from the urethral orifice was observed under the electrical stimulation of the exposed abdominal muscle using an electrical stimulator and an isolator. […] The peak of the intravesical pressure during the stimulation of the abdominal muscle was measured, and the lowest pressure at which the fluid leakage was observed among the trials was defined as LPP for the electrical abdominal muscle stimulation method. In order to examine whether the urethral resistance increasing effect of Compound A′ is based on its agonistic potency on 5-HT2C receptors, SB 242084, methiothepin, or a vehicle was intravenously administered, and Compound A′ or a vehicle was intraduodenally administered 5 minutes later. SB 242084 was dissolved in a mixed solution of N,N-dimethylacetamide and polyethylene glycol 400 (1:1) and administered at 0.03 mg/0.5 mL/kg, 0.1 mg/0.5 mL/kg and 0.3 mg/0.5 mL/kg. Methiothepin was dissolved in saline and administered at 0.03 mg/0.5 mL/kg. 0.1 mg/0.5 mL/kg and 0.3 mg/0.5 mL/kg. Compound A′ was suspended in 0.5% MC and administered at 3 mg/mL/kg. LPP was measured again 30 minutes after Compound A′ administration. In order to examine where Compound A′ works in the body to increase urethral resistance, the blocking of the effect of Compound A′ was confirmed by blocking the functions of Compound A′ by giving methiothepin at a particular site in the body. Particularly, in the experiment with intrathecal administration, methiothepin or a vehicle was intrathecally administered, and Compound A′ or a vehicle was intraduodenally administered 5 minutes later. Methiothepin was dissolved in saline and 20 μL of the obtained solution was administered. Compound A′ was suspended in 0.5% MC and administered at 3 mg/mL/kg. LPP was measured again 30 minutes after Compound A′ administration.
Regarding change in LPP before and after drug administration, the differences between the mean values of the Compound A′-treated and vehicle-treated groups were analyzed by the Student's t test or the Welch's test. In order to analyze the influence of the antagonists on the effect of Compound A′, the differences between the mean values of the SB 242084- or methiothepin- and Compound A′-administered group and the vehicle- and Compound A′-administered group were analyzed by the one-tailed Williams' test.

[7] = Plasma concentrations in rats 30 minutes after oral administration (effective plasma concentration at LPP10); conditions: rat
Description: Ten female rats of SD strain were anesthetized with isoflurane. In order to secure the same conditions as those for drug-administered animals, their spinal cord was transected at the T8-T9 (the eighth thoracic cord—the ninth thoracic cord) level. Then, a cannula for blood collection was inserted into the femoral artery. […] These drugs were each dissolved in 0.5% MC. Thirty minutes after oral administration, up to 250 μL of blood was collected from the femoral artery or the tail vein and treated with heparin. The collected blood was immediately cooled on ice and centrifuged under conditions involving 3,000 rpm and 4° C. for 10 minutes to obtain plasma. The plasma samples were stored under conditions of −80° C. until drug quantification.
After thawing of the plasma samples, the internal standard compound was added thereto, and the mixture was then centrifuged under conditions of 5,250 rpm. The drug contained in 60 μL of the supernatant was quantified by LC-MS/MS.

[8] = cited from earlier work
[9] = methiothepin 10 μg intrathecal + Compound A′ 3 mg/kg i.d.
[10] = methiothepin 30 μg intrathecal + Compound A′ 3 mg/kg i.d.
[11] = methiothepin 0.03 mg/kg i.v. + Compound A′ 3 mg/kg i.d.
[12] = methiothepin 100 μg intrathecal + Compound A′ 0 mg/kg i.d.
[13] = methiothepin 100 μg intrathecal + Compound A′ 3 mg/kg i.d.
[14] = methiothepin 0.1 mg/kg i.v. + Compound A′ 3 mg/kg i.d.
[15] = methiothepin 0.3 mg/kg i.v. + Compound A′ 0 mg/kg i.d.
[16] = methiothepin 0.3 mg/kg i.v. + Compound A′ 3 mg/kg i.d.

For `CNCC[C@H](Oc1cccc2ccccc12)c1cccs1` [Duloxetine, duloxetine hydrochloride], the “LPP Post” value ([1]; 5 mg/kg p.o.) was 64.1 ± 5.5 cmH2O, the “LPP Increase” value ([1]; 5 mg/kg p.o.) was 4.2 ± 1.7 cmH2O and the “LPP Pre” value ([1]; 5 mg/kg p.o.) was 59.9 ± 5.1 cmH2O. The “LPP Post” value ([1]; 10 mg/kg p.o.) was 67.6 ± 3.5 cmH2O, the “LPP Increase” value ([1]; 10 mg/kg p.o.) was 7.7 ± 2.2 cmH2O and the “LPP Pre” value ([1]; 10 mg/kg p.o.) was 59.8 ± 3.8 cmH2O. For the same compound, the “LPP Post” value ([1]; 20 mg/kg p.o.) was 69.8 ± 4.0 cmH2O, the “LPP Increase” value ([1]; 20 mg/kg p.o.) was 11.9 ± 3.7 cmH2O and the “LPP Pre” value ([1]; 20 mg/kg p.o.) was 57.9 ± 2.7 cmH2O. For the same compound, the “LPP Post” value ([1]; 40 mg/kg p.o.) was 73.3 ± 5.3 cmH2O, the “LPP Increase” value ([1]; 40 mg/kg p.o.) was 13.1 ± 2.9 cmH2O and the “LPP Pre” value ([1]; 40 mg/kg p.o.) was 60.2 ± 3.1 cmH2O. For the same compound, the “LPP Post” value ([2]; 5 mg/kg i.d.) was 38.3 ± 2.7 cmH2O, the “LPP Increase” value ([2]; 5 mg/kg i.d.) was 1.7 ± 1.4 cmH2O and the “LPP Pre” value ([2]; 5 mg/kg i.d.) was 36.6 ± 3.0 cmH2O. The “LPP Post” value ([2]; 10 mg/kg i.d.) was 39.1 ± 2.9 cmH2O, the “LPP Increase” value ([2]; 10 mg/kg i.d.) was 3.7 ± 2.3 cmH2O and the “LPP Pre” value ([2]; 10 mg/kg i.d.) was 35.3 ± 3.0 cmH2O. For the same compound, the “LPP Post” value ([2]; 20 mg/kg i.d.) was 46.6 ± 5.7 cmH2O, the “LPP Increase” value ([2]; 20 mg/kg i.d.) was 9.7 ± 3.5 cmH2O and the “LPP Pre” value ([2]; 20 mg/kg i.d.) was 36.9 ± 2.8 cmH2O. For the same compound, the “Urethra-closing reflex response Post” value ([3]; 30 minutes after administration, intravesical pressure rise by 50 cm H2O) was 8.66 ± 1.34 cmH2O, the “Urethra-closing reflex response Pre” value ([3]; before administration, intravesical pressure rise by 50 cm H2O) was 4.88 ± 0.86 cmH2O and the “Urethra-closing reflex response Ratio (Post/Pr)” value ([3]; ratio of Post value to Pre value) was 2.00 ± 0.28. For the same compound, the “MT of the urethra-closing response in response to TMS, Mean” value ([4]; 0.5 hr) was 67.4%, the “Rate of change from baseline of MT of the urethra-closing response in response to TMS, Mean” value (shortened to “Rate of change”) ([4]; 0.5 hr) was −0.4% and the “MT of the urethra-closing response in response to TMS, Mean” value ([4]; 2 hr) was 62.0%. For the same compound, the “Rate of change” value ([4]; 2 hr) was −5.9%, the “MT of the urethra-closing response in response to TMS, Mean” value ([4]; 6 hr) was 56.4% and the “Rate of change” value ([4]; 6 hr) was −11.8%. For the same compound, the “MT of the urethra-closing response in response to TMS, Mean” value ([4]; Predose) was 67.8%, the “maximum change from baseline in MT in response to TMS” value ([4]; 40 mg group, at 6 hours post dose) was −11.8% and the “maximal urethral resistance increasing effect (LPP elevation) in rats” value ([5]; summary of Examples 2 and 5) was “around 10 cmH2O”.

In the case of `CSc1ccc2c(c1)C(N1CCN(C)CC1)Cc1ccccc1S2.O=C(O)/C=C\C(=O)O` (stereo not shown) [methiothepin, methiothepin maleate], the “LPP Post” value ([6]; methiothepin 10 μg intrathecal + Compound A′ 3 mg/kg i.d., 30 minutes after Compound A′) is reported as 69.4 ± 10.4 cmH2O, the “LPP Increase” value [6, 9] is reported as 35.3 ± 9.8 cmH2O and the “LPP Pre” value [6, 9] is reported as 34.1 ± 3.2 cmH2O. The “LPP Post” value ([6]; methiothepin 30 μg intrathecal + Compound A′ 3 mg/kg i.d., 30 minutes after Compound A′) was 52.1 ± 8.6 cmH2O, the “LPP Increase” value [6, 10] was 11.1 ± 6.5 cmH2O and the “LPP Pre” value [6, 10] was 41.0 ± 3.6 cmH2O. The “LPP Increase” value [6, 11] was 17.9 ± 4.3 cmH2O, the “LPP Pre” value [6, 11] was 44.4 ± 2.5 cmH2O and the “LPP Post” value ([6]; methiothepin 100 μg intrathecal + Compound A′ 0 mg/kg i.d., 30 minutes after i.d. administration) was 40.5 ± 3.2 cmH2O. For the same compound, the “LPP Increase” value [6, 12] was −5.3 ± 3.0 cmH2O, the “LPP Pre” value [6, 12] was 45.8 ± 4.8 cmH2O and the “LPP Post” value ([6]; methiothepin 100 μg intrathecal + Compound A′ 3 mg/kg i.d., 30 minutes after Compound A′) was 45.9 ± 5.5 cmH2O. The “LPP Increase” value [6, 13] was 5.6 ± 3.5 cmH2O, the “LPP Pre” value [6, 13] was 40.4 ± 3.0 cmH2O and the “LPP Post” value ([6]; methiothepin 0.1 mg/kg i.v. + Compound A′ 3 mg/kg i.d., 30 minutes after Compound A′) was 59.9 ± 3.7 cmH2O. For the same compound, the “LPP Increase” value [6, 14] was 9.5 ± 3.3 cmH2O, the “LPP Pre” value [6, 14] was 50.4 ± 4.4 cmH2O and the “LPP Post” value ([6]; methiothepin 0.3 mg/kg i.v. + Compound A′ 0 mg/kg i.d., 30 minutes after i.d. administration) was 44.0 ± 7.1 cmH2O. The “LPP Increase” value [6, 15] was −2.0 ± 2.5 cmH2O, the “LPP Pre” value [6, 15] was 46.0 ± 9.6 cmH2O and the “LPP Post” value ([6]; methiothepin 0.3 mg/kg i.v. + Compound A′ 3 mg/kg i.d., 30 minutes after Compound A′) was 40.6 ± 4.9 cmH2O. The “LPP Increase” value [6, 16] was −2.2 ± 2.9 cmH2O and the “LPP Pre” value [6, 16] was 42.9 ± 3.8 cmH2O.

In the case of `C[C@H]1CNCCc2ccc(Cl)cc21` [Compound B, (R)-8-chloro-1-methyl-2,3,4,5-tetrahydro-1H-3-benzazepine], the concentration at 30 min ([7]; female, SD, plasma, po, 4 mg/kg) is listed as 32.9 ± 18 ng/mL, the “plasma concentration at LPP10” value ([7]; measured concentration multiplied by ratio between dosage used and LPP10) is listed as 9.9 ng/mL and the “average plasma concentration in a day (steady state) giving a body weight lowering effect greater than placebo by 3.8% in humans” value ([8]; 10 mg b.i.d. (launched dose), free form) is listed as 43 ng/mL. For the same compound, the “average plasma concentration in a day (steady state) giving a body weight lowering effect greater than placebo by 2.6% in humans” value ([8]; 10 mg q.d., free form) was 24 ng/mL, the blood concentration ([8]; after a single administration of a sustained release formulation containing 20 mg) was 39 ng/mL and the “plasma concentration Cmin” value ([8]; launched dose 10 mg bid) was 26 ng/mL. The blood concentration ([8]; sustained release formulation containing 20 mg once daily) was 74 ng/mL and the “plasma concentration estimated to show sufficient effects on urethra-closing function in humans” value ([5]; second analysis: 14-fold lower than 43 ng/mL) was “around 3 ng/mL”.
